Patent publication US5958894A, “Amphiphilic biguanide derivatives” (Megabios Corporation, priority 1997, dated 1999)
Values belong to the compound of their own block, whether it stands above or below them.

What was measured:
[1] = test system: in vivo transfection; test: Comparison of in vivo transfection activity of biguanide and guanidine derivatives with identical hydrophobic chains; conditions: data not shown
Text: The biguanide derivatives of the present invention differ from the guanidine derivatives described in WO 95/14381 in the positively charged headgroups. The positive charge of the biguanide derivatives is delocalized over five nitrogen atoms, whereas the positive charge of the guanidine derivatives is delocalized over three nitrogen atoms. Thus, compounds of the present invention have been compared to the guanidine derivatives having the identical hydrophobic chains (not shown).

[2] = test system: CAT reporter gene expression in lung; test: Gene transfer efficiency by intravenous delivery: CAT reporter gene (plasmid p4119) activity in mouse organs; format: in vivo, ICR female mice; conditions: with either cholesterol or DLPE as neutral lipids
Protocol: (§1) DOBG, DMBG and DPBG were used to prepare liposomes with either cholesterol or DLPE (1,2-dilauroyl-sn-glycerol-3-phosphoethanolamine) as neutral lipids. The lipids were dissolved in a mixture of chloroform and methanol (1:1). Lipid films of cationic and neutral lipid at a 1:1 molar ratio were formed with a rotary evaporator. The films were hydrated with either 5% dextrose in water (D5W) or 5 mM HEPES buffer (pH 7.4) at various temperatures. […] DMBG:DLPE was hydrated in D5W at 50° C. and extruded through a 0.05 μm membrane. […] DOBG:cholesterol and DOBG:DLPE were hydrated in D5W at room temperature and extruded through a 0.05 μm membrane.

[3] = strongly basic head group; cited from earlier work
[4] = Liposome hydration and extrusion; format: physicochemical; conditions: at 50° C.; with either DLPE or cholesterol
Protocol: as §1

SMILES: CCCCCCCC/C=C\CCCCCCCC(=O)OCCN(CCOC(=O)CCCCCCC/C=C\CCCCCCCC)C(=N)NC(=N)N [DOBG, N,N-di(2-(oleoyloxy)ethyl) biguanide]
in vivo transfection activity, dioleoyl derivatives of biguanide versus guanidine [1]: higher in vivo transfection activity than the dioleolyl derivatives of guanidine | transfection activity in the lung compared with DOTIM:cholesterol [2]: comparable to or higher than DOTIM:cholesterol

SMILES: N=C(N)NC(=N)N [biguanide]
pKa [3]: 11.5

Hydration of lipid film [4]: could not be completely hydrated
SMILES: CCCCCCCCCCCCCCCC(=O)OCCN(CCOC(=O)CCCCCCCCCCCCCCC)C(=N)NC(=N)N [DPBG, N,N-di(2-(palmitoyloxy)ethyl)biguanide]
